ChEMBL document CHEMBL4382216, “Asymmetric synthesis and biological evaluation of imidazole- and oxazole-containing synthetic lipoxin A4 mimetics (sLXms)” (Eur J Med Chem, 2019)
Active and inactive are the calls of the source. The rule behind the calls is not given here.

Experiments:
[1] = organism: Homo sapiens; assay: Activation of Luc-fused NFkB (unknown origin) expressed in non-stimulated human THP1 cells assessed as relative luminescence unit at 10^-10 M after 24 hrs by luciferase reporter gene assay (reference value: 100%); type: cell-based
[2] = molecular target: T1, N-formyl peptide receptor 2 (Homo sapiens) (UniProt P25090); assay: Agonist activity at ALX/FPR2 (unknown origin) expressed in HEK293 cells co-expressing Galphaq assessed as induction of intracellular calcium accumulation at 0.01 nM to 100 nM by Fluo-4 dye based fluorescence spectrophotometric assay; type: functional, cell-based
T1 sequence (whole entry): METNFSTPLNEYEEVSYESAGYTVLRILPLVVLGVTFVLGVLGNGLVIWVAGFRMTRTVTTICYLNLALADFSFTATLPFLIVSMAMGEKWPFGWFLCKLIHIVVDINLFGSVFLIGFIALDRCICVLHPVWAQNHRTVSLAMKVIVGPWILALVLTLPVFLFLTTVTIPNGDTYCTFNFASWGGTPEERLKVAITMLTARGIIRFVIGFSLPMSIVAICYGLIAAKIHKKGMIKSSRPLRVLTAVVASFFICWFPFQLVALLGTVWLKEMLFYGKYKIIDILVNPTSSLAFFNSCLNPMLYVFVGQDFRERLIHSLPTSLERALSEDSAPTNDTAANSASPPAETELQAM

[3] = molecular target: T2, N-formyl peptide receptor 2 (Homo sapiens, UniProt P25090); assay: Agonist activity at ALX/FPR2 in human THP1 cells harboring NF-kB-Luc assessed as inhibition of LPS-induced NFkB signalling activation pretreated for 30 mins followed by LPS stimulation for 24 hrs by luciferase reporter gene assay; type: cell-based
T2 sequence (P25090 whole entry): T1 sequence (whole entry)

[4] = organism: Homo sapiens; assay: Activation of Luc-fused NFkB (unknown origin) expressed in non-stimulated human THP1 cells assessed as relative luminescence unit at 10^-12 M after 24 hrs by luciferase reporter gene assay (reference value: 100%); type: cell-based
[5] = test system: Mus musculus; assay: (§1) Anti-inflammatory activity in zymosan-induced C57BL/6J mouse peritonitis model assessed as reduction in total cell count in peritoneal cavity at 43 ng, ip pretreated for 30 mins followed by zymosan treatment and redosing of test compound at 1 hr post zymosan addition and measured at 24 hrs post zymosan addition by flow cytometry relative to basal level (reference value: 14); type: functional
[6] = molecular target: T1, N-formyl peptide receptor 2 (Homo sapiens); assay: Agonist activity at ALX/FPR2 in human THP1 cells harboring NF-kB-Luc assessed as inhibition of LPS-induced NFkB signalling activation by measuring NF-kB activation level at 10^-6 M pretreated for 30 mins followed by LPS stimulation for 24 hrs by luciferase reporter gene assay; type: cell-based; design: scale not given: the % may be the effect or the level left
[7] = test system: Mus musculus; assay: as §1, with “as” for “as reduction in”, “cytometry” for “cytometry relative to basal level”, “100%)” for “14)”; type: functional
[8] = molecular target: T2, N-formyl peptide receptor 2; assay: Agonist activity at ALX/FPR2 in human THP1 cells harboring NF-kB-Luc assessed as inhibition of LPS-induced NFkB signalling activation by measuring reduction in IFNgamma secretion pretreated for 30 mins followed by LPS stimulation for 24 hrs by electrochemiluminescence assay; type: cell-based; settings: read-out: IC50
[9] = molecular target: T2, N-formyl peptide receptor 2; assay: Agonist activity at ALX/FPR2 in human THP1 cells harboring NF-kB-Luc assessed as inhibition of LPS-induced NFkB signalling activation by measuring reduction in IL-1beta secretion pretreated for 30 mins followed by LPS stimulation for 24 hrs by electrochemiluminescence assay; type: cell-based; settings: read-out: IC50
[10] = test system: THP-1; assay: Cytotoxicity against human THP1 cells harboring NFkB-Luc assessed as LDH release at 10'9 M after 24 hrs by spectrophotometric method relative to control; type: cell-based; settings: thp-1, 24 h
[11] = molecular target: T2, N-formyl peptide receptor 2; assay: Agonist activity at ALX/FPR2 in human THP1 cells harboring NF-kB-Luc assessed as inhibition of LPS-induced NFkB signalling activation by measuring reduction in TNFalpha secretion pretreated for 30 mins followed by LPS stimulation for 24 hrs by electrochemiluminescence assay; type: cell-based; settings: read-out: IC50
[12] = molecular target: T1, N-formyl peptide receptor 2 (Homo sapiens); assay: Agonist activity at ALX/FPR2 in human THP1 cells harboring NF-kB-Luc assessed as inhibition of LPS-induced NFkB signalling activation by measuring NF-kB activation level at 10^-11 M pretreated for 30 mins followed by LPS stimulation for 24 hrs by luciferase reporter gene assay; type: cell-based; design: scale not given: the % may be the effect or the level left
[13] = test system: THP-1; assay: Cytotoxicity against human THP1 cells harboring NFkB-Luc assessed as LDH release at 10'12 M after 24 hrs by spectrophotometric method relative to control; type: cell-based; settings: thp-1, 24 h
[14] = test system: HEK293; assay: Induction of intracellular calcium accumulation in HEK293 cells at 0.01 nM to 100 nM by Fluo-4 dye based fluorescence spectrophotometric assay; type: functional, cell-based; settings: Homo sapiens
[15] = molecular target: T1, N-formyl peptide receptor 2 (Homo sapiens); assay: Agonist activity at ALX/FPR2 in human THP1 cells harboring NF-kB-Luc assessed as inhibition of LPS-induced NFkB signalling activation by measuring TNFalpha secretion at 10^-11 M pretreated for 30 mins followed by LPS stimulation for 24 hrs by electrochemiluminescence assay; type: cell-based; design: scale not given: the % may be the effect or the level left
[16] = organism: Homo sapiens; assay: Activation of Luc-fused NFkB (unknown origin) expressed in non-stimulated human THP1 cells assessed as relative luminescence unit at 10^-7 M after 24 hrs by luciferase reporter gene assay (reference value: 100%); type: cell-based
[17] = molecular target: T1, N-formyl peptide receptor 2 (Homo sapiens); assay: Agonist activity at ALX/FPR2 in human THP1 cells harboring NF-kB-Luc assessed as inhibition of LPS-induced NFkB signalling activation by measuring IL-6 secretion at 10^-9 M pretreated for 30 mins followed by LPS stimulation for 24 hrs by electrochemiluminescence assay; type: cell-based; design: scale not given: the % may be the effect or the level left
[18] = organism: Homo sapiens; assay: Activation of Luc-fused NFkB (unknown origin) expressed in non-stimulated human THP1 cells assessed as relative luminescence unit at 10^-8 M after 24 hrs by luciferase reporter gene assay (reference value: 100%); type: cell-based
[19] = test system: THP-1; assay: Cytotoxicity against human THP1 cells harboring NFkB-Luc assessed as LDH release at 10'7 M after 24 hrs by spectrophotometric method relative to control; type: cell-based; settings: thp-1, 24 h
[20] = organism: Homo sapiens; assay: Activation of Luc-fused NFkB (unknown origin) expressed in non-stimulated human THP1 cells assessed as relative luminescence unit at 10^-11 M after 24 hrs by luciferase reporter gene assay (reference value: 100%); type: cell-based
[21] = test system: THP-1; assay: Cytotoxicity against human THP1 cells harboring NFkB-Luc assessed as LDH release at 10'11 M after 24 hrs by spectrophotometric method relative to control; type: cell-based; settings: thp-1, 24 h
[22] = test system: THP-1; assay: Cytotoxicity against human THP1 cells harboring NFkB-Luc assessed as LDH release at 10'8 M after 24 hrs by spectrophotometric method relative to control; type: cell-based; settings: thp-1, 24 h
[23] = molecular target: T1, N-formyl peptide receptor 2 (Homo sapiens); assay: Agonist activity at ALX/FPR2 in human THP1 cells harboring NF-kB-Luc assessed as inhibition of LPS-induced NFkB signalling activation by measuring IL-1beta secretion at 10^-11 M pretreated for 30 mins followed by LPS stimulation for 24 hrs by electrochemiluminescence assay; type: cell-based; design: scale not given: the % may be the effect or the level left
[24] = organism: Homo sapiens; assay: Activation of Luc-fused NFkB (unknown origin) expressed in non-stimulated human THP1 cells assessed as relative luminescence unit at 10^-6 M after 24 hrs by luciferase reporter gene assay (reference value: 100%); type: cell-based
[25] = test system: THP-1; assay: Cytotoxicity against human THP1 cells harboring NFkB-Luc assessed as LDH release at 10'10 M after 24 hrs by spectrophotometric method relative to control; type: cell-based; settings: thp-1, 24 h
[26] = test system: THP-1; assay: Cytotoxicity against human THP1 cells harboring NFkB-Luc assessed as LDH release at 10'6 M after 24 hrs by spectrophotometric method relative to control; type: cell-based; settings: thp-1, 24 h

Row | Activity [2] | IC50 [3] [nM] | Activity [6] [%] | IC50 [8] [nM] | IC50 [9] [nM] | IC50 [11] [nM] | Activity [12] [%] | Activity [15] [%] | Activity [17] [%] | Activity [23] [%] | SMILES | Activity [1] [%] | Activity [4] [%] | fold change (FC) [5] | Emax [7] [%] | fold change (FC) [10] | fold change (FC) [13] | Activity [14] | Activity [16] [%] | Activity [18] [%] | fold change (FC) [19] | also measured
1 | Active | 32.4 | 90.2 | 0.7 | 1 | 4.1 | 83.4 | 69.3 | 77.3 | 50.3 | CCCCC[C@H](O)c1nc(-c2ccccc2)n(-c2ccccc2)c1/C=C/[C@@H](O)[C@@H](O)CCCC(=O)OC | 1.7 | 1.3 | 3 | 19.5 | 0.8 | 0.6 | inactive | 0.9 | 1.2 | 1.4 | Activity [20]: 1.4%; fold change (FC) [21]: 0.6; fold change (FC) [22]: 1; Activity [24]: 1.3%; fold change (FC) [25]: 0.6; fold change (FC) [26]: 1.6
2 | Active | 26.3 | 93.3 | 22.2 | 1.8 | 7.7 | 95.5 | 19.6 | 1.1 | 6.6 | CCCCC[C@H](O)/C=C/C=C\C=C\C=C\[C@@H](O)[C@@H](O)CCCC(=O)O [LIPOXIN A4] | – | – | – | – | – | – | inactive | – | – | – | –
3 | – | 26.2 | 88.5 | 18.5 | 1.4 | 7.1 | 94.3 | 61.5 | 64.4 | 49.6 | CCCCC[C@@H](O)c1nc(-c2ccccc2)n(-c2ccccc2)c1/C=C/[C@@H](O)[C@@H](O)CCCC(=O)OC | 1.5 | 1.7 | 6 | 42.5 | 0.8 | 0.5 | – | 0.8 | 1.2 | 1.1 | Activity [20]: 1.5%; fold change (FC) [21]: 0.5; fold change (FC) [22]: 0.9; Activity [24]: 1.2%; fold change (FC) [25]: 0.6; fold change (FC) [26]: 1.1
